Article PMC11555717 (Cancer Medicine, 2024)
Square brackets hold non-standard residues; d marks the D form. Peptide text beside a SMILES is read from it. * marks the point of attachment. Dolaproine = CO[C@@H]([C@@H]1CCCN1)[C@@H](C)C(=O)O; Dil = CC[C@H](C)[C@H](NC)[C@@H](CC(=O)O)OC; X1 = C[C@@H](N*)[C@@H](O)c1ccccc1; NMeV = CN[C@H](C(=O)O)C(C)C

Columns and labels:
[1] = EV-203 pharmacokinetics of ADC, TAb and free MMAE in serum or plasma; type: in vivo, human; conditions: for Time of peak free MMAE concentration postinfusion: after end of enfortumab vedotin infusion
Procedure: In the PK cohort (i.e., PK analysis set), intensive PK sampling was performed wherein blood samples for analysis of ADC, total antibody (TAb), and free (unconjugated) MMAE were collected at prespecified time points. […] Blood samples for antitherapeutic antibodies (ATAs) were collected predose on Day 1 of cycles 1 to 4, 6, 8, 10, and within 30–37 days after the last study dose. Validated assays were used to measure concentrations of ADC, TAb, and free MMAE in serum or plasma and to assess ATA levels.
All patients who received any amount of study drug were included in the primary analyses of efficacy endpoints and safety analyses. The PK analyses included data from patients in the PK cohort who received at least 3 of 4 doses of the study drug through cycle 2 Day 1 and had at least five blood samples collected and assayed for measurements of ADC, TAb, or free MMAE concentrations to determine at least one PK parameter.

[2] = test system: patients with HER2-positive (IHC2+ or 3+) unresectable locally advanced or mUC; set-up: method as in earlier work; conditions: pooled two phase 2 studies, combined N = 107; 95% CI 40.6%–60.3%; cited from earlier work
[3] = cycle 1 Day 1, Non-PK cohort, mean (SD)
[4] = cycle 1 Day 1, PK cohort, mean (SD)
[5] = cycle 1 Day 8, Non-PK cohort, mean (SD)
[6] = cycle 1 Day 8, PK cohort, mean (SD)
[7] = cycle 1 Day 15, Non-PK cohort, mean (SD)
[8] = cycle 1 Day 15, PK cohort, mean (SD)
[9] = plasma, Cycle 1 Day 15, third to first dose, mean (SD)

With `CC[C@H](C)[C@@H]([C@@H](CC(=O)N1CCC[C@H]1[C@H](OC)[C@@H](C)C(=O)N[C@H](C)[C@@H](O)c1ccccc1)OC)N(C)C(=O)[C@@H](NC(=O)[C@@H](NC)C(C)C)C(C)C` [Free MMAE, monomethyl auristatin E] (H-[NMeV]V[Dil][Dolaproine]-X1) the “Plasma concentration at end of infusion” value [1, 3] was 376 (241) [23] pg/mL, the “Plasma concentration at end of infusion” value [1, 4] was 357 (154) [13] pg/mL and the “Plasma concentration at end of infusion” value [1, 5] was 2720 (1490) [17] pg/mL. For the same molecule, the “Plasma concentration at end of infusion” value [1, 6] was 1680 (1290) [12] pg/mL, the “Plasma concentration at end of infusion” value [1, 7] was 3350 (2600) [11] pg/mL and the “Plasma concentration at end of infusion” value [1, 8] was 2110 (1680) [10] pg/mL. For the same molecule, the “Median t max (range)” value ([1]; plasma, Cycle 1 Day 1) was 2.00 (1.87–2.93) days, the “AUC0–7d” value ([1]; plasma, Cycle 1 Day 1, after enfortumab vedotin 1.25 mg/kg IV, mean (SD)) was 16.9 (9.2) day ng/mL and the C max ([1]; plasma, Cycle 1 Day 1, mean (SD)) was 3.3 (1.74) ng/mL. For the same molecule, the “Median t max (range)” value ([1]; plasma, Cycle 1 Day 15) was 1.93 (0.86–2.92) days, the “AUC0–7d” value ([1]; plasma, Cycle 1 Day 15, after enfortumab vedotin 1.25 mg/kg IV, mean (SD)) was 23.3 (16.4) day ng/mL and the C max ([1]; plasma, Cycle 1 Day 15, mean (SD)) was 4.5 (3.58) ng/mL. The “R ac (AUC0–7d), accumulation ratio” value [1, 9] was 1.32 (0.486), the “R ac (Cmax), accumulation ratio” value [1, 9] was 1.28 (0.499) and the “Time of peak free MMAE concentration postinfusion” value ([1]; plasma, listed as MMAE) was “approximately 2 days”. The “Time of peak free MMAE concentration postinfusion” value ([1]; plasma, listed as free MMAE) was 2 to 3 days and the “Mean accumulation ratios (third to first dose) for maximum concentration and AUC0–7d” value ([1]; range over ADC, TAb and free MMAE, repeat dosing) was 1.03 to 1.32.

In the case of “TAb: total antibody analyte measured in serum after enfortumab vedotin dosing”, the “Serum concentration at end of infusion” value [1, 3] is reported as 29,100 (5050) [23] ng/mL, the “Serum concentration at end of infusion” value [1, 4] is reported as 30,800 (5730) [13] ng/mL and the “Serum concentration at end of infusion” value [1, 5] is reported as 29,900 (5450) [17] ng/mL. The “Serum concentration at end of infusion” value [1, 6] was 34,300 (6640) [12] ng/mL, the “Serum concentration at end of infusion” value [1, 7] was 27,600 (6210) [11] ng/mL and the “Serum concentration at end of infusion” value [1, 8] was 33,600 (5450) [10] ng/mL. The “AUC0–7d” value ([1]; serum, Cycle 1 Day 1, PK cohort, 1.25 mg/kg IV, mean (SD)) was 77.4 (17.3) day μg/mL, the C max ([1]; serum, Cycle 1 Day 1, PK cohort, mean (SD)) was 31.7 (5.73) μg/mL and the “AUC0–7d” value ([1]; serum, Cycle 1 Day 15, PK cohort, 1.25 mg/kg IV, mean (SD)) was 94.7 (15.7) day μg/mL. For the same molecule, the C max ([1]; serum, Cycle 1 Day 15, PK cohort, mean (SD)) was 34.4 (4.64) μg/mL and the “Time of peak serum concentration” value ([1]; serum, PK cohort cycle 1) was “at the end of the enfortumab vedotin infusion”.

B1: disitamab vedotin (conjugate, chains of the INN, looked up)
VH: EVQLVQSGAEVKKPGATVKISCKVSGYTFTDYYIHWVQQAPGKGLEWMGRVNPDHGDSYYNQKFKDKATITADKSTDTAYMELSSLRSEDTAVYFCARNYLFDHWGQGTLVTVSS
VL: DIQMTQSPSSVSASVGDRVTITCKASQDVGTAVAWYQQKPGKAPKLLIYWASIRHTGVPSRFSGSGSGTDFTLTISSLQPEDFATYYCHQFATYTFGGGTKVEIK
modifications: vedotin (MMAE) payload
In the case of B1, the ORR [2] is listed as 50.5%.
